According to patent US9931300B2, “Methods for superdisintegrant-based composite particles for dispersion and dissolution of active pharmaceutical agents” (New Jersey Institute of Technology, priority 2012, dated 2018):

Experiments:
[1] = USP II dissolution test of NCMPs in deionized water; type: physicochemical
Description: Dissolution tests were carried out in a standard USP II apparatus with about 50 rpm paddle speed. A sample of NCMPs (n=6) containing about 8.9 mg GF were dissolved in about 1000 ml deionized water at about 37° C., and samples taken from the vessel were syringe-filtered (0.1 μm filter) and assayed via UV spectroscopy. Unlike in the re-dispersion test, the use of a large amount of water ensures substantially full solubilization of the drug in this test.

[2] = Particle size of as-received / dry powders (Rodos/Helos laser diffraction where stated); type: physicochemical; conditions: as-received or dry
Description: The particle sizes of GF suspensions after milling in Runs 2, 3, and 5 (about 10% GF/about 2.5% HPC) indicate that the milling results were fairly reproducible. […] The dry particle size of CCS, as measured by Rodos/Helos laser diffraction system, was D10: 12.90 μm, D50: 28.55 μm, and D90: 66.09 The particle size increased to D10:13.74 μm, D50: 63.68 μm and D90: 96.28 μm after about 3 h swelling in de-ionized water as measured by Coulter LS13320 with the liquid module.
The suspensions were coated onto Pharmatose® carrier particles in the fluidized bed processor. The particle size statistics of Pharmatose® as measured by Rodos is D10: 58 μm, D50: 116 μm and D90: 206 μm. The median particle size of Pharmatose® increased from about 116 μm to about 120-150 μm due to coating and some agglomeration.

[3] = cited from earlier work

Compound	GF dissolved in about 60 min [1]	particle size D10 of as-received / dry powder [2] [μm]	particle size D50 of as-received / dry powder [2] [μm]	particle size D90 of as-received / dry powder [2] [μm]	solubility in methanol ([3]; methanol, about 25° C.)	solubility in water ([3]; water)
COC1=CC(=O)C[C@@H](C)[C@]12Oc1c(Cl)c(OC)cc(OC)c1C2=O [GF, griseofulvin]	about 14%	3.9	16.0	47.4	about 30 mg/ml	–
OC[C@@H](O)[C@@H](O)[C@H](O)[C@H](O)CO [Mannitol]	–	–	–	–	–	about 180 g/L
